What was measured:
[1] = test system: letrozole resistant cells; assay: Sensitization of letrozole resistant cells by overexpression of CSMD1; format: cell-based; conditions: letrozole resistant cells overexpressing CSMD1
ERα+ breast cancer cells = assay: Sensitization of ERα+ breast cancer cells by overexpression of CSMD1; format: cell-based; conditions: ERα+ breast cancer cells overexpressing CSMD1
[2] = test system: human lymphoblastoid cells; assay: Sensitivity of human lymphoblastoid cell lines selected by rs6990851 genotype (AA, AG, GG) to aromatase inhibitors; format: cell-based; conditions: rs6990851 GG versus AA and AG lymphoblastoid cells
ERα [3] = molecular target: T1, ERα (Homo sapiens, UniProt P03372); conditions: 0-40 μM, traces above the background
T1 sequence (P03372 1-595): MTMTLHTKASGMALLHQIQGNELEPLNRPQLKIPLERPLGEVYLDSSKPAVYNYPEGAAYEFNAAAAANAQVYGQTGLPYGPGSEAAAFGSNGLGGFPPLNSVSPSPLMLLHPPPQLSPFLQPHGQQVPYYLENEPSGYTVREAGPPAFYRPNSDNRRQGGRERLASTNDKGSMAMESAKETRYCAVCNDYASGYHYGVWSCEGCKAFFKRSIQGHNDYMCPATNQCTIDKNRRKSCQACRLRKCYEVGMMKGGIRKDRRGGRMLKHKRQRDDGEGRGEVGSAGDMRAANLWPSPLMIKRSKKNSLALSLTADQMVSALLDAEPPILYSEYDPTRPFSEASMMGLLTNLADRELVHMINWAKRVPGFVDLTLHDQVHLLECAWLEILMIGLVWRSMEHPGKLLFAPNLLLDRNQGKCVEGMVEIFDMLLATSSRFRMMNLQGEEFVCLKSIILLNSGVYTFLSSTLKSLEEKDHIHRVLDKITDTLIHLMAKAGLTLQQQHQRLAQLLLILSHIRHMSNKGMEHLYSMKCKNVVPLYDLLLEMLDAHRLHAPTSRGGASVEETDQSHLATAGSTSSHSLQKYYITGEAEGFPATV

ERα [4] = molecular target: T1, ERα; conditions: FIG. 7, ERα/GADPH fold change

Structure (SMILES)	sensitization by CSMD1 overexpression [1]	sensitization by CSMD1 overexpression (ERα+ breast cancer cells)	sensitivity of homozygous GG variant cells to treatment [2]	direct binding to ERα (SPR sensograms) (ERα [3])	ERα degradation (ERα [4])
CC(C)(C#N)c1cc(Cn2cncn2)cc(C(C)(C)C#N)c1 [anastrozole]	sensitized	sensitized	more sensitive	–	–
N#Cc1ccc(C(c2ccc(C#N)cc2)n2cncn2)cc1 [letrozole]	not	–	not observed	No interactions were observed	not
